Active and inactive are the calls of the source. The rule behind the calls is not given here.
Key:
Pseudomonas aeruginosa [1] = experiment: Antibacterial activity against Pseudomonas aeruginosa 535 assessed as inhibition of bacterial growth incubated for 16 to 18 hrs by CLSI based two-fold serial dilution method; type: functional; settings: time 16-18 hrs
Staphylococcus aureus [2] = experiment: Bactericidal against methicillin-resistant Staphylococcus aureus USA300 assessed as total eradication of bacterial colonies at 1 to 2 times MIC measured upto 7 hrs by time kill assay; type: functional, organism-based
Staphylococcus aureus [3] = experiment: Antibacterial activity against methicillin-resistant Staphylococcus aureus 330041 assessed as inhibition of bacterial growth incubated for 16 to 18 hrs by CLSI based two-fold serial dilution method; type: functional; settings: time 16-18 hrs
Staphylococcus aureus [4] = experiment: Antibacterial activity against methicillin-resistant Staphylococcus aureus USA300 assessed as inhibition of bacterial growth incubated for 16 to 18 hrs by CLSI based two-fold serial dilution method; type: functional; settings: time 16-18 hrs
Staphylococcus aureus [5] = experiment: Antibacterial activity against methicillin-resistant Staphylococcus aureus 3392 assessed as inhibition of bacterial growth incubated for 16 to 18 hrs by CLSI based two-fold serial dilution method; type: functional; settings: time 16-18 hrs
Staphylococcus aureus [6] = experiment: Resistance development in methicillin-resistant Staphylococcus aureus USA300 assessed as increase in MIC measured after 15 passages; type: functional, organism-based
Cell membrane [7] = experiment: Induction of cell membrane damage in methicillin-resistant Staphylococcus aureus USA300 assessed as disruption of cell membrane at 8 ug/ml measured after 0.5 hrs by SEM analysis; type: cell membranes; settings: dose 8.0 µg/ml
Staphylococcus aureus [8] = experiment: Bactericidal against methicillin-resistant Staphylococcus aureus USA300 assessed as elimination of bacterial colonies at 16 ug/ml measured within 3 hrs by time kill assay relative to control; type: functional; settings: dose 16 µg/ml
HEK-293T = experiment: Cytotoxicity against HEK293T cells assessed as effect on cell viability at 35 ug/ml incubated for 24 hrs by MTT assay; type: toxicity, cell-based; settings: human, dose 35 µg/ml
Pseudomonas aeruginosa [9] = experiment: Antibacterial activity against Pseudomonas aeruginosa 408 assessed as inhibition of bacterial growth incubated for 16 to 18 hrs by CLSI based two-fold serial dilution method; type: functional; settings: time 16-18 hrs
Staphylococcus aureus [10] = experiment: Bactericidal against methicillin-resistant Staphylococcus aureus USA300 assessed as reduction in bacterial colonies at 32 ug/ml measured upto 7 hrs by time kill assay; type: functional, organism-based; settings: dose 32.0 µg/ml
Cell membrane [11] = experiment: Disruption of cell membrane integrity in methicillin-resistant Staphylococcus aureus USA300 assessed as increase in fluorescence intensity measured after 0 to 100 mins by SYTOX Green staining based analysis; type: cell membranes; settings: dose 2-32 µg/ml, time 0-100 min
Staphylococcus aureus [12] = experiment: Antibacterial activity against methicillin-resistant Staphylococcus aureus 3390 assessed as inhibition of bacterial growth incubated for 16 to 18 hrs by CLSI based two-fold serial dilution method; type: functional; settings: time 16-18 hrs
Acinetobacter baumannii [13] = experiment: Antibacterial activity against Acinetobacter baumannii 1309 assessed as inhibition of bacterial growth incubated for 16 to 18 hrs by CLSI based two-fold serial dilution method; type: functional; settings: time 16-18 hrs
Erythrocyte [14] = experiment: Hemolytic activity in sheep RBC at 20 ug/ml incubated for 1 hr by absorbance based analysis; type: toxicity, cell-based, Ovis aries; settings: dose 20 µg/ml
Cell membrane [15] = experiment: Induction of cell membrane damage in methicillin-resistant Staphylococcus aureus USA300 assessed as appearance of wrinkles in cell surface at 8 ug/ml measured after 0.5 hrs by SEM analysis; type: cell membranes; settings: dose 8.0 µg/ml
Staphylococcus aureus [16] = experiment: Antibacterial activity against methicillin-resistant Staphylococcus aureus USA300 infected in ICR mouse assessed as reduction in bacterial load in infected thigh at 20 mg/kg, sc pre-infected with bacteria for 2 hrs followed by compound administration as dual dose and measured after 3 days; type: functional, organism-based; settings: time 3.0 day
[17] = Toxicity in ICR mouse infected with methicillin-resistant Staphylococcus aureus USA300 assessed as reduction in body weight at 20 mg/kg, sc administered as dual dose and measured after 3 days; type: organism-based; settings: in vivo, 72 h, time 3 day
[18] = Cytotoxicity against human L02 cells assessed as inhibition of cell growth incubated for 24 hrs by MTT assay; type: toxicity, cell-based
Acinetobacter baumannii [19] = experiment: Antibacterial activity against Acinetobacter baumannii 1310 assessed as inhibition of bacterial growth incubated for 16 to 18 hrs by CLSI based two-fold serial dilution method; type: functional; settings: time 16-18 hrs
Staphylococcus aureus [20] = experiment: Antibacterial activity against methicillin-resistant Staphylococcus aureus USA300 infected in ICR mouse assessed as reduction in bacterial load in infected thigh at 10 mg/kg, sc pre-infected with bacteria for 2 hrs followed by compound administration as dual dose and measured after 3 days; type: functional, organism-based; settings: time 3.0 day
Cell membrane [21] = experiment: Induction of cell membrane damage in methicillin-resistant Staphylococcus aureus USA300 assessed as appearance of wrinkles in cell surface at 16 ug/ml measured after 0.5 hrs by SEM analysis; type: cell membranes; settings: dose 16.0 µg/ml
Cell membrane [22] = experiment: Induction of cell membrane damage in methicillin-resistant Staphylococcus aureus USA300 assessed as disruption of cell membrane at 16 ug/ml measured after 0.5 hrs by SEM analysis; type: cell membranes; settings: dose 16.0 µg/ml
[23] = Toxicity in ICR mouse infected with methicillin-resistant Staphylococcus aureus USA300 assessed as reduction in body weight at 10 mg/kg, sc administered as dual dose and measured after 3 days; type: organism-based; settings: in vivo, 72 h, time 3 day
Staphylococcus aureus [24] = experiment: Bactericidal against methicillin-resistant Staphylococcus aureus USA300 assessed as elimination of bacterial colonies at 16 ug/ml measured within 5 hrs by time kill assay relative to control; type: functional; settings: dose 16 µg/ml
Erythrocyte [25] = experiment: Hemolytic activity in sheep RBC at 30 ug/ml incubated for 1 hr by absorbance based analysis; type: toxicity, cell-based, Ovis aries; settings: dose 30 µg/ml
Cell membrane [26] = experiment: Disruption of cell membrane integrity in methicillin-resistant Staphylococcus aureus USA300 assessed as increase in fluorescence intensity measured after 0 to 30 mins by SYTOX Green staining based analysis; type: cell membranes; settings: dose 2-16 µg/ml, time 0-30 min

| SMILES | MIC (Pseudomonas aeruginosa [1]) [µg/mL] | MIC (Staphylococcus aureus [3]) [µg/mL] | MIC (Staphylococcus aureus [4]) [µg/mL] | MIC (Staphylococcus aureus [5]) [µg/mL] | MIC (Pseudomonas aeruginosa [9]) [µg/mL] | MIC (Staphylococcus aureus [12]) [µg/mL] | MIC (Acinetobacter baumannii [13]) [µg/mL] | IC50 at 24 h [18] [µg/mL] | MIC (Acinetobacter baumannii [19]) [µg/mL] | further results |
| --- | --- | --- | --- | --- | --- | --- | --- | --- | --- | --- |
| Br.O=C(CCCCCCCCC[P+](c1ccccc1)(c1ccccc1)c1ccccc1)OC[C@H](NC(=O)C(Cl)Cl)[C@H](O)c1ccc([N+](=O)[O-])cc1 | > 64 | 1 | 1 | 1 | > 64 | 1 | > 64 | > 32 | 32 | Activity (Staphylococcus aureus [2]): inactive; Activity (Staphylococcus aureus [6]): inactive; Activity (Cell membrane [7]): Active; Activity (Staphylococcus aureus [8]): 100%; Activity (HEK-293T): Non-Toxic; Activity (Staphylococcus aureus [10]): Active; Activity (Cell membrane [11]): Dose-Dependent Effect; Activity (Erythrocyte [14]): Non-Toxic; Activity (Cell membrane [15]): Active; Activity (Staphylococcus aureus [16]): Active; Activity [17]: Non-Toxic |
| Br.O=C(CC[P+](c1ccccc1)(c1ccccc1)c1ccccc1)OC[C@H](NC(=O)C(Cl)Cl)[C@H](O)c1ccc([N+](=O)[O-])cc1 | > 64 | > 64 | > 64 | > 64 | > 64 | > 64 | > 64 | > 64 | > 64 |  |
| COc1cccc([P+](CCCCCCCCCC(=O)O)(c2cccc(OC)c2)c2cccc(OC)c2)c1.[Br-] | > 64 | 32 | 32 | 16 | 64 | 32 | 64 | 15.4 | > 64 |  |
| O=C(O)CCCCCCCCC[P+](c1cccc(F)c1)(c1cccc(F)c1)c1cccc(F)c1.[Br-] | > 64 | > 64 | > 64 | > 64 | > 64 | > 64 | > 64 | > 64 | > 64 |  |
| O=C(O)CC[P+](c1ccccc1)(c1ccccc1)c1ccccc1.[Br-] | > 64 | > 64 | > 64 | > 64 | > 64 | > 64 | > 64 | > 64 | > 64 |  |
| O=C(N[C@H](CO)[C@H](O)c1ccc([N+](=O)[O-])cc1)C(Cl)Cl [CHLORAMPHENICOL] | > 64 | > 64 | > 64 | > 64 | > 64 | > 64 | > 64 | > 64 | > 64 | Activity (Staphylococcus aureus [20]): inactive; Activity [17]: Non-Toxic |
| Br.Cc1ccc([P+](CCCCCCCCCC(=O)OC[C@H](NC(=O)C(Cl)Cl)[C@H](O)c2ccc([N+](=O)[O-])cc2)(c2ccc(C)cc2)c2ccc(C)cc2)cc1 | > 64 | 0.5 | 0.5 | 0.5 | > 64 | 0.5 | > 64 | 14.7 | > 64 |  |
| O=C(O)CCCCCn1cc(C[P+](c2ccc(F)cc2)(c2ccc(F)cc2)c2ccc(F)cc2)nn1.[Br-] | > 64 | > 64 | > 64 | > 64 | > 64 | > 64 | > 64 | > 64 | > 64 |  |
| Br.COc1cccc([P+](CCCCCCCCCC(=O)OC[C@H](NC(=O)C(Cl)Cl)[C@H](O)c2ccc([N+](=O)[O-])cc2)(c2cccc(OC)c2)c2cccc(OC)c2)c1 | 16 | 1 | 1 | 1 | 4 | 2 | > 64 | 21.7 | > 64 |  |
| Br.O=C(CCCCCn1cc(C[P+](c2ccc(F)cc2)(c2ccc(F)cc2)c2ccc(F)cc2)nn1)OC[C@H](NC(=O)C(Cl)Cl)[C@H](O)c1ccc([N+](=O)[O-])cc1 | > 64 | 16 | 16 | 16 | > 64 | 16 | > 64 | > 64 | > 64 |  |
| O=C(O)CCCCCCCCC[P+](c1ccc(F)cc1)(c1ccc(F)cc1)c1ccc(F)cc1.[Br-] | > 64 | > 64 | > 64 | > 64 | > 64 | > 64 | > 64 | > 64 | > 64 |  |
| CN[C@H](CC(C)C)C(=O)N[C@H]1C(=O)N[C@@H](CC(N)=O)C(=O)N[C@H]2C(=O)N[C@H]3C(=O)N[C@H](C(=O)N[C@H](C(=O)O)c4cc(O)cc(O)c4-c4cc3ccc4O)[C@H](O)c3ccc(c(Cl)c3)Oc3cc2cc(c3O[C@@H]2O[C@H](CO)[C@@H](O)[C@H](O)[C@H]2O[C@H]2C[C@](C)(N)[C@H](O)[C@H](C)O2)Oc2ccc(cc2Cl)[C@H]1O [VANCOMYCIN] | > 64 |  |  |  | > 64 |  | > 64 | > 64 | > 64 | Activity [17]: Non-Toxic |
| Br.O=C(CCCCCCCCC[P+](c1ccc(F)cc1)(c1ccc(F)cc1)c1ccc(F)cc1)OC[C@H](NC(=O)C(Cl)Cl)[C@H](O)c1ccc([N+](=O)[O-])cc1 | > 64 | 1 | 2 | 2 | > 64 | 2 | > 64 | > 64 | > 64 | Activity (Staphylococcus aureus [2]): inactive; Activity (Cell membrane [21]): Active; Activity (Staphylococcus aureus [6]): inactive; Activity (Cell membrane [22]): Active; Activity [23]: Non-Toxic; Activity (HEK-293T): Non-Toxic; Activity (Staphylococcus aureus [10]): Active; Activity (Staphylococcus aureus [24]): 100%; Activity (Erythrocyte [25]): Non-Toxic; Activity (Staphylococcus aureus [20]): inactive; Activity (Cell membrane [26]): Dose-Dependent Effect |
| Br.O=C(CCCCCCCCC[P+](c1ccc(C(F)(F)F)cc1)(c1ccc(C(F)(F)F)cc1)c1ccc(C(F)(F)F)cc1)OC[C@H](NC(=O)C(Cl)Cl)[C@H](O)c1ccc([N+](=O)[O-])cc1 | > 64 | 1 | 1 | 1 | > 64 | 1 | > 64 | > 32 | > 64 |  |
| CN(C)c1ccc([P+](CCCCCCCCCC(=O)O)(c2ccc(N(C)C)cc2)c2ccc(N(C)C)cc2)cc1.[Br-] | 32 | 8 | 4 | 16 | 16 | 8 | 32 | 2.1 | 32 |  |
| Br.O=C(CCCCCCCCCCCCCCCCC[P+](c1ccccc1)(c1ccccc1)c1ccccc1)OC[C@H](NC(=O)C(Cl)Cl)[C@H](O)c1ccc([N+](=O)[O-])cc1 | > 64 | 2 | 2 | 2 | > 64 | 2 | > 64 | 7.9 | > 64 |  |
| O=C(O)CCCCCCCCC[P+](c1ccc(Cl)cc1)(c1ccc(Cl)cc1)c1ccc(Cl)cc1.[Br-] | > 64 | > 64 | > 64 | > 64 | > 64 | > 64 | > 64 | 30.8 | > 64 |  |
